The structures appear in SMILES notation. pIC50: −log10 of the molar value.

The test concerns the target PDE1A (Homo sapiens, UniProt P54750). The experiment in a line: PDE1A dose response, Cyclic Nucleotide Phosphodiesterase Assay Kit from Biomol (colorimetric). The class given is biochemical. The following applies: purified PDE1A enzyme, 100 μM cAMP. The text has this: For the dose response and further screening, we used the Cyclic Nucleotide
Phosphodiesterase Assay Kit from Biomol, a colorimetric, non-radioactive assay. The basis for the assay is the cleavage of cAMP by PDE1A. The 5′AMP is further cleaved into the nucleoside and phosphate by the enzyme 5′-nucleotidase (catnr KI-307). The phosphate released due to enzymatic cleavage is quantified using BIOMOL GREEN™ reagent (catnr AK-111) in a modified Malachite Green assay^1,2. A PDE1A inhibitor will result in a decrease of the signal.
For the enzymatic reaction a mix of 25 μL with purified PDE1A enzyme, 100 μM cAMP, 5′Nucleotidase and the compound is made in a clear 384-plate. The reaction buffer is Tris 20 mM pH 7.4, 4 μg/mL calmodulin, 3 mM MgCl2, 1.5 mM CaCl2, 0.2 mg/mL BSA and 0.001% Brij-35. After an incubation of 45 minutes at 37° C., the reaction is stopped by the addition of 50 μL BIOMOL GREEN™ reagent. After 30 minutes incubation at room temperature, the readout is performed on the Envision (absorption at 615 nm).
All compounds are tested in duplicate starting from […] followed by a 1/3 serial dilution, 8 points (20 μM-6.67 μM-2.22 μM-740 nM-247 nM-82 nM-27 nM-9 nM) in a final concentration of 1% DMSO. As the positive dose response control compound Vardenafil is used. For the calculation of z′ and PIN values 10 μM Vardenafil is used as positive control (100% inhibition) and 1% DMSO as negative control (0% inhibition).
The following compounds have been or can be prepared according to the synthetic methods described above. For the purpose of Table 7 below, PDE1A activity of each compound, which can be determined using the assay methods described herein, is expressed as follows: […]
For the molecule `CC(C)(C)OC(=O)N1CCC(NC(=O)N2CC(c3nc4c(cnn4C4CCCCC4)c(=O)[nH]3)C2)CC1` [Example 41, tert-butyl 4-(3-(1-cyclohexyl-4-oxo-4,5-dihydro-1H-pyrazolo[3,4-d]pyrimidin-6-yl)azetidine-1-carboxamido)piperidine-1-carboxylate], the pIC50 was 7.00 to 9.00.
Take `Cc1nn(C2CCCCC2)c2nc(C3CCCN(C(=O)c4cccs4)C3)[nH]c(=O)c12` (centres unmarked) [Example 101, 1-cyclohexyl-3-methyl-6-(1-(thiophene-2-carbonyl)piperidin-3-yl)-1H-pyrazolo[3,4-d]pyrimidin-4(5H)-one]: the pIC50 was 5.82 to 6.00.
In turn, `O=c1[nH]c(C2CN(c3ccc(S(=O)(=O)N4CCOCC4)cc3)C2)nc2c1cnn2C1CCCCC1` [Example 145, 1-Cyclohexyl-6-(1-(4-(Morpholinosulfonyl)phenyl)azetidin-3-yl)-1H-pyrazolo[3,4-d]pyrimidin-4(5H)-one] had a pIC50 of 7.00 to 9.00.
The value for `CC(C)(C)n1ncc2c(=O)[nH]c(C3CN(c4nccs4)C3)nc21` [Example 141, 1-tert-butyl-6-(1-(thiazol-2-yl)azetidin-3-yl)-1H-pyrazolo[3,4-d]pyrimidin-4(5H)-one] was 6.00 to 6.30; that for `O=C(OCC1CCCCC1)N1CC(c2nc3c(cnn3C3CCCCC3)c(=O)[nH]2)C1` [Example 120, cyclohexylmethyl 3-(1-cyclohexyl-4-oxo-4,5-dihydro-1H-pyrazolo[3,4-d]pyrimidin-6-yl)azetidine-1-carboxylate] was 7.00 to 9.00; that for `COc1ccc(S(=O)(=O)N2CCCC(c3nc4c(c(C)nn4C4CCC4)c(=O)[nH]3)C2)cc1` (centres unmarked) [Example 70, 1-cyclobutyl-6-(1-(4-methoxyphenylsulfonyl)piperidin-3-yl)-3-methyl-1H-pyrazolo[3,4-d]pyrimidin-4(5H)-one] was 6.30 to 7.00.
As to `COc1ccc(NC(=O)N2CC(c3nc4c(cnn4C4CCCCC4)c(=O)[nH]3)C2)cc1` [Example 13, 3-(1-cyclohexyl-4-oxo-4,5-dihydro-1H-pyrazolo[3,4-d]pyrimidin-6-yl)-N-(4-methoxyphenyl)azetidine-1-carboxamide], the pIC50 was 7.00 to 9.00.
As for `Cc1nn(C2CCCCC2)c2nc(C3CCCN(S(=O)(=O)Cc4ccccc4)C3)[nH]c(=O)c12` (centres unmarked) [Example 103, 6-(1-(benzylsulfonyl)piperidin-3-yl)-1-cyclohexyl-3-methyl-1H-pyrazolo[3,4-d]pyrimidin-4(5H)-one], the pIC50 was 5.82 to 6.00.
The same measure for `CC(C)(C)n1ncc2c(=O)[nH]c(C3CN(C(=O)Oc4cccc(Cl)c4)C3)nc21` [Example 118, 3-chlorophenyl 3-(1-tert-butyl-4-oxo-4,5-dihydro-1H-pyrazolo[3,4-d]pyrimidin-6-yl)azetidine-1-carboxylate]: 7.00 to 9.00.
Turning to `CN(C)c1cccc(NC(=O)N2CC(c3nc4c(cnn4C4CCCCC4)c(=O)[nH]3)C2)c1` [Example 7, 3-(1-cyclohexyl-4-oxo-4,5-dihydro-1H-pyrazolo[3,4-d]pyrimidin-6-yl)-N-(3-(dimethylamino)phenyl)azetidine-1-carboxamide], the pIC50 is 7.00 to 9.00.
For the molecule `Cc1ccccc1C(=O)N1CCCC(c2nc3c(c(C)nn3C3CCCCC3)c(=O)[nH]2)C1` (centres unmarked) [Example 87, 1-cyclohexyl-3-methyl-6-(1-(2-methylbenzoyl)piperidin-3-yl)-1H-pyrazolo[3,4-d]pyrimidin-4(5H)-one], the pIC50 was 6.00 to 6.30.
The same measure for `CC(C)(C)n1ncc2c(=O)[nH]c(C3CN(/C(=N\C#N)Nc4ccc(F)cc4)C3)nc21` [Example 179, 3-(1-tert-Butyl-4-oxo-4,5-dihydro-1H-pyrazolo[3,4-d]pyrimidin-6-yl)-N′-cyano-N-(4-fluorophenyl)azetidine-1-carboximidamide]: 7.00 to 9.00.
The same measure for `COC(=O)c1ccc(C(=O)N2CCCC(c3nc4c(c(C)nn4C4CCCCC4)c(=O)[nH]3)C2)cc1` (centres unmarked) [Example 66, methyl 4-(3-(1-cyclohexyl-3-methyl-4-oxo-4,5-dihydro-1H-pyrazolo[3,4-d]pyrimidin-6-yl)piperidine-1-carbonyl)benzoate]: 6.30 to 7.00; for `O=c1[nH]c(C2CCCN(Cc3ccccc3)C2)nc2c1cnn2C1CCCCC1` (centres unmarked) [Example 176, 6-(1-Benzylpiperidin-3-yl)-1-cyclohexyl-1H-pyrazolo[3,4-d]pyrimidin-4(5H)-one]: 5.82 to 6.00.
The same measure for `O=c1[nH]c(C2CN(c3nc(-c4ccccc4)co3)C2)nc2c1cnn2C1CCCCC1` [Example 132, 1-cyclohexyl-6-(1-(4-phenyloxazol-2-yl)azetidin-3-yl)-1H-pyrazolo[3,4-d]pyrimidin-4(5H)-one]: 7.00 to 9.00.
`CC(C)N1CCC(CNC(=O)N2CC(c3nc4c(cnn4C4CCCCC4)c(=O)[nH]3)C2)CC1` [Example 184, 3-(1-Cyclohexyl-4-oxo-4,5-dihydro-1H-pyrazolo[3,4-d]pyrimidin-6-yl)-N-((1-isopropylpiperidin-4-yl)methyl)azetidine-1-carboxamide] had a negative-log IC50 (pIC50) of 6.00 to 6.30.
Take `O=c1[nH]c(C2CN(c3ncc(-c4ccccc4)o3)C2)nc2c1cnn2C1CCCCC1` [Example 136, 1-cyclohexyl-6-(1-(5-phenyloxazol-2-yl)azetidin-3-yl)-1H-pyrazolo[3,4-d]pyrimidin-4(5H)-one]: the pIC50 was 6.30 to 7.00.
`COc1ccccc1C(=O)N1CCCC(c2nc3c(cnn3-c3ccccc3)c(=O)[nH]2)C1` (centres unmarked) [Example 65, 6-(1-(2-methoxybenzoyl)piperidin-3-yl)-1-phenyl-1H-pyrazolo[3,4-d]pyrimidin-4(5H)-one] gave a pIC50 of 6.30 to 7.00.
The same measure for `O=c1[nH]c(C2CN(c3nc(CN4CCOCC4)cs3)C2)nc2c1cnn2C1CCCCC1` [Example 142, 1-cyclohexyl-6-(1-(4-(morpholinomethyl)thiazol-2-yl)azetidin-3-yl)-1H-pyrazolo[3,4-d]pyrimidin-4(5H)-one]: 6.30 to 7.00.
The value for `O=c1[nH]c(C2CN(c3ccccc3CN3CCOCC3)C2)nc2c1cnn2C1CCCCC1` [Example 156, 1-Cyclohexyl-6-(1-(2-(morpholinomethyl)phenyl)azetidin-3-yl)-1H-pyrazolo[3,4-d]pyrimidin-4(5H)-one] was 6.30 to 7.00; that for `Cc1nn(C2CCCCC2)c2nc(C3CN(C(=O)Nc4ccc(F)cc4)C3)[nH]c(=O)c12` [Example 21, 3-(1-cyclohexyl-3-methyl-4-oxo-4,5-dihydro-1H-pyrazolo[3,4-d]pyrimidin-6-yl)-N-(4-fluorophenyl)azetidine-1-carboxamide] was 7.00 to 9.00; that for `COc1cccc(C(=O)N2CCCC(c3nc4c(c(C)nn4C4CCCCC4)c(=O)[nH]3)C2)c1` (centres unmarked) [Example 71, 1-cyclohexyl-6-(1-(3-methoxybenzoyl)piperidin-3-yl)-3-methyl-1H-pyrazolo[3,4-d]pyrimidin-4(5H)-one] was 6.30 to 7.00.
Molecule `CC(C)(C)NC(=O)N1CC(c2nc3c(cnn3C3CCCCC3)c(=O)[nH]2)C1` [Example 38, N-tert-butyl-3-(1-cyclohexyl-4-oxo-4,5-dihydro-1H-pyrazolo[3,4-d]pyrimidin-6-yl)azetidine-1-carboxamide] showed a pIC50 of 7.00 to 9.00.
The value for `CCCCCS(=O)(=O)N1CC(c2nc3c(cnn3C3CCCCC3)c(=O)[nH]2)C1` [Example 104, 1-cyclohexyl-6-(1-(pentylsulfonyl)azetidin-3-yl)-1H-pyrazolo[3,4-d]pyrimidin-4(5H)-one] was 5.82 to 6.00; that for `N#Cc1ccc(C(=O)N2CCCC(c3nc4c(cnn4-c4ccccc4)c(=O)[nH]3)C2)cc1` (centres unmarked) [Example 110, 4-(3-(4-oxo-1-phenyl-4,5-dihydro-1H-pyrazolo[3,4-d]pyrimidin-6-yl)piperidine-1-carbonyl)benzonitrile] was 5.82 to 6.00; that for `CC(C)(C)n1ncc2c(=O)[nH]c(C3CN(c4nc5ccccc5[nH]4)C3)nc21` [Example 128, 6-(1-(1H-benzo[d]imidazol-2-yl)azetidin-3-yl)-1-tert-butyl-1H-pyrazolo[3,4-d]pyrimidin-4(5H)-one] was 7.00 to 9.00.
For the molecule `N#C/N=C(/NCC1CCCCC1)N1CC(c2nc3c(cnn3C3CCCCC3)c(=O)[nH]2)C1` [Example 178, N′-Cyano-3-(1-cyclohexyl-4-oxo-4,5-dihydro-1H-pyrazolo[3,4-d]pyrimidin-6-yl)-N-(cyclohexylmethyl)azetidine-1-carboximidamide], the pIC50 is 7.00 to 9.00.
Turning to `CC(=O)c1ccc(N2CC(c3nc4c(cnn4C4CCCCC4)c(=O)[nH]3)C2)cc1` [Example 147, 6-(1-(4-acetoylphenyl)azetidin-3-yl)-1-cyclohexyl-1H-pyrazolo[3,4-d]pyrimidin-4(5H)-one], the pIC50 is 7.00 to 9.00.
The same measure for `O=C(NC1CCOCC1)N1CC(c2nc3c(cnn3C3CCCCC3)c(=O)[nH]2)C1` [Example 47, 3-(1-cyclohexyl-4-oxo-4,5-dihydro-1H-pyrazolo[3,4-d]pyrimidin-6-yl)-N-(tetrahydro-2H-pyran-4-yl)azetidine-1-carboxamide]: 6.30 to 7.00.
